This experiment deals with human TYK2 (JH2domain-pseudokinase) (Homo sapiens (Human), UniProt P29597). In words: TYK2 JH2 Domain Binding Assay (KINOMEscan). As for the experimental part:
Binding constants for compounds of the present invention against the JH2 domain were determined by the following protocol for a KINOMEscan® assay (DiscoveRx). A fusion protein of a partial length construct of human TYK2 (JH2domain-pseudokinase) (amino acids G556 to D888 based on reference sequence NP_003322.3) and the DNA binding domain of NFkB was expressed in transiently transfected HEK293 cells. From these HEK 293 cells, extracts were prepared in M-PER extraction buffer (Pierce) in the presence of Protease Inhibitor Cocktail Complete (Roche) and Phosphatase Inhibitor Cocktail Set II (Merck) per manufacturers' instructions. The TYK2 (JH2domain-pseudokinase) fusion protein was labeled with a chimeric double-stranded DNA tag containing the NFkB binding site (5′-[…]-3′) fused to an amplicon for qPCR readout, which was added directly to the expression extract (the final concentration of DNA-tag in the binding reaction is 0.1 nM).
The liganded beads were blocked with excess biotin and washed with blocking buffer (SeaBlock (Pierce), 1% BSA, 0.05% Tween 20, 1 mM DTT) to remove unbound ligand and to reduce nonspecific binding.
Extracts were used directly in binding assays without any enzyme purification steps at a ≥10,000-fold overall stock dilution (final DNA-tagged enzyme concentration <0.1 nM). Extracts were loaded with DNA-tag and diluted into the binding reaction in a two step process. First extracts were diluted 1:100 in 1× binding buffer (PBS/0.05% Tween 20/10 mM DTT/0.1% BSA/2 μg/ml sonicated salmon sperm DNA) containing 10 nM DNA-tag. This dilution was allowed to equilibrate at room temperature for 15 minutes and then subsequently diluted 1:100 in 1× binding buffer. […] Kds were determined using an 11-point 3-fold compound dilution series with three DMSO control points. […] The compounds were then diluted directly into the assays such that the final concentration of DMSO was 0.9%. All reactions performed in polypropylene 384-well plates. Each was a final volume of 0.02 mL. Assays were incubated with shaking for 1 hour at room temperature. Then the beads were pelleted and washed with wash buffer (1×PBS, 0.05% Tween 20) to remove displaced kinase and test compound. […] The qPCR protocol consisted of a 10 minute hot start at 95° C., followed by 35 cycles of 95° C. for 15 seconds, 60° C. for 1 minute.
Kds were determined using an 11-point 3-fold compound dilution series with three DMSO control points. […] The compounds were then diluted directly into the assays such that the final concentration of DMSO was 0.9%. The Kds were determined using a compound top concentration of 30,000 nM. Kd measurements were performed in duplicate.
Binding constants (Kds) were calculated with a standard dose-response curve using the Hill equation: […]
The Hill Slope was set to −1.
Chain of human TYK2 (JH2domain-pseudokinase) (P29597 556-888): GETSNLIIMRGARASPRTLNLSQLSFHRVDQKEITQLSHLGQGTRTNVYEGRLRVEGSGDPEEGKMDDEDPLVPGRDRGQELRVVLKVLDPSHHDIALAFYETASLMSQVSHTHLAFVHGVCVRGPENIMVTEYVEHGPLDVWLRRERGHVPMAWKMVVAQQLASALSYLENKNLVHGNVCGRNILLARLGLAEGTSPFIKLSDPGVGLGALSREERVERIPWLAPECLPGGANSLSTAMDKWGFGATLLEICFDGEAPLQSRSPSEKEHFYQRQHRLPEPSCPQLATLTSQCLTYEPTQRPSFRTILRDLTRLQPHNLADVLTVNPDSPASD
Take `CNc1cc(Nc2cccn(-c3cccnc3)c2=O)nc2c(C(=O)N[C@@H]3CCC[C@@H](OC)C3)cnn12` [I-1288]: the Kd is under 0.2 nM.
In the case of `CNc1cc(Nc2cccn(C3CC(F)(F)C3)c2=O)nc2c(C(=O)N[C@@H]3CC[C@H]3O)cnn12` [I-1198] it was under 0.2 nM; in that of `CNc1cc(Nc2cccn([C@H]3CCC[C@@H](C#N)C3)c2=O)nc2c(C(=O)N[C@@H]3C[C@@H]3F)cnn12` [I-1220], 0.2 to 1 nM.
For `CNc1cc(Nc2cccn(-c3cnn(C)c3F)c2=O)nc2c(C(=O)N[C@@H]3CC[C@H]3OC)cnn12` [I-1368] the value was under 0.2 nM; for `CNc1cc(Nc2cccn(C3CC(F)(F)C3)c2=O)nc2c(C(=O)N[C@H]3CC[C@@H]3O)cnn12` [I-1199], 0.2 to 1 nM.
For `CNc1cc(Nc2cccn(C(C)C)c2=O)nc2c(C(=O)N[C@H]3CC[C@@H](O)C3)cnn12` [I-1265] the value was 1 to 10 nM.
As for `CNc1cc(Nc2cccn([C@H]3CCC[C@@H](C#N)C3)c2=O)nc2c(C(=O)NC3CC3)cnn12` [I-1361], the Kd lay in the range of 0.2 to 1 nM.
For `CNc1cc(Nc2cccn(C(C)C)c2=O)nc2c(C(=O)N[C@@H]3CC[C@]3(C)O)cnn12` [I-1370] the value was 1 to 10 nM; for `CNc1cc(Nc2cccn(-c3nn(C)cc3F)c2=O)nc2c(C(=O)NC3CC3)cnn12` [I-1275], under 0.2 nM; for `CNc1cc(Nc2cc(C(F)(F)F)cn(-c3cnn(C)c3)c2=O)nc2c(C(=O)NC3CC3)cnn12` [I-523], 0.2 to 1 nM.
Consider `CNc1cc(Nc2cccn([C@H]3C[C@@H]3OC)c2=O)nc2c(C(=O)N[C@H]3CC[C@@H]3OC)cnn12` [I-1187], for which the Kd was under 0.2 nM.
The molecule `CNc1cc(Nc2cccn([C@H]3CCCOC3)c2=O)nc2c(C(=O)NC3CC3OC)cnn12` (mixture of isomers) [I-1415, N-(2-methoxycyclopropyl)-7-(methylamino)-5-((2-oxo-1-((S)-tetrahydro-2H-pyran-3-yl)-1,2-dihydropyridin-3-yl)amino)pyrazolo[1,5-a]pyrimidine-3-carboxamide] yielded a dissociation constant Kd of 0.2 to 1 nM.
For `CNc1cc(Nc2cccn(C(C)C)c2=O)nc2c(C(=O)N[C@H]3COC[C@H]3O)cnn12` [I-1406] the value was over 10 nM; for `CNc1cc(Nc2cccn(C(C)C)c2=O)nc2c(C(=O)N[C@H]3CCC[C@](C)(O)C3)cnn12` [I-1242], under 0.2 nM.
In the case of `CNc1cc(Nc2cccn([C@@H]3CCC[C@H](O)C3)c2=O)nc2c(C(=O)N[C@@H]3CC[C@H]3OC)cnn12` [I-1190] it was under 0.2 nM; in that of `CNc1cc(Nc2cccn([C@@H]3CCC[C@@H]3O)c2=O)nc2c(C(=O)N[C@H]3CC[C@@H]3OC)cnn12` [I-1394], under 0.2 nM; in that of `CNc1cc(Nc2cc(Cl)cnc2OC(C)C)nc2c(C(=O)NC3COC3)cnn12` [I-87], over 10 nM.
For `CNc1cc(Nc2cccn(C3CCOCC3)c2=O)nc2c(C(=O)N[C@@H]3CC[C@@H](OC)C3)cnn12` [I-1195] the value was 1 to 10 nM; for `CNc1cc(Nc2cccn([C@H]3CCC[C@@H](C#N)C3)c2=O)nc2c(C(=O)N[C@@H]3C[C@@H]3F)cnn12` [I-1360], under 0.2 nM; for `CNc1cc(Nc2cccn([C@@H]3CCCOC3)c2=O)nc2c(C(=O)N[C@H]3C[C@@H]3OC)cnn12` [I-1270], 1 to 10 nM.
On to `CNc1cc(-c2cn([C@H]3CCCOC3)c3ncccc23)nc2c(C(=O)N[C@H]3CC[C@H]3O)cnn12` [I-1258], for which the dissociation constant (Kd) is over 10 nM.
For `CNc1cc(-c2cn([C@@H]3CCCOC3)c3ncccc23)nc2c(C(=O)N[C@@H]3COC[C@@H]3O)cnn12` [I-1184] the value was under 0.2 nM.
In the case of `CNc1cc(Nc2cccn(C3CCOCC3)c2=O)nc2c(C(=O)N[C@@H]3CCC[C@@H](O)C3)cnn12` [I-1226] it was 1 to 10 nM.
Consider `CNc1cc(Nc2cccn(C3CC(F)(F)C3)c2=O)nc2c(C(=O)N[C@@H]3CC[C@@H](O)C3)cnn12` [I-1211], for which the Kd is under 0.2 nM.
`CNc1cc(-c2cn(C3CC3)c3ncccc23)nc2c(C(=O)N[C@H]3CCC[C@]3(C)O)cnn12` [I-1281] showed an equilibrium dissociation constant (Kd) of 0.2 to 1 nM.
In the case of `CNc1cc(Nc2cccn([C@H]3C[C@@H]3F)c2=O)nc2c(C(=O)N[C@H]3CC[C@@H]3OC)cnn12` [I-1204] it was under 0.2 nM; in that of `CNc1cc(Nc2cccn([C@@H]3CCCOC3)c2=O)nc2c(C(=O)N[C@H]3C[C@@H]3OC)cnn12` [I-1414], over 10 nM.
For `CNc1cc(Nc2cccn([C@@H]3CCCC[C@@H]3O)c2=O)nc2c(C(=O)N[C@@H]3CC[C@H]3OC)cnn12` [I-1339] the value was 0.2 to 1 nM; for `CNc1cc(Nc2cccn([C@@H]3C[C@H]3F)c2=O)nc2c(C(=O)N[C@@H]3CC[C@H](O)C3)cnn12` [I-1203], under 0.2 nM.
`CNc1cc(Nc2cccn(-c3ccccn3)c2=O)nc2c(C(=O)N[C@H]3C[C@@H]3OC)cnn12` [I-1287] had a Kd of under 0.2 nM.
In the case of `CNc1cc(Nc2cccn(C3CCOCC3)c2=O)nc2c(C(=O)N[C@@H]3CCC[C@@](C)(OC)C3)cnn12` [I-1201] it was 0.2 to 1 nM; in that of `CNc1cc(Nc2cc(F)cn(C3CCCOC3)c2=O)nc2c(C(=O)N[C@@H]3C[C@@H]3F)cnn12` (stereo partly drawn) [I-521], under 0.2 nM.
In the case of `CNc1cc(-c2cn([C@H]3CCCOC3)c3ncccc23)nc2c(C(N)=O)cnn12` [I-1256] it was under 0.2 nM; in that of `CNc1cc(-c2cn(C3CCOCC3)c3ncccc23)nc2c(C(=O)N[C@H]3CCC[C@]3(C)O)cnn12` [I-1222], under 0.2 nM; in that of `CNc1cc(Nc2cccn([C@H]3CC[C@@H](OC)CC3)c2=O)nc2c(C(=O)N[C@H]3CC[C@@H]3O)cnn12` [I-1291], 1 to 10 nM.
For `CNc1cc(-c2cn([C@@H]3CCN(CCF)C3)c3ncccc23)nc2c(C(=O)NC3CC3)cnn12` [I-1367, (R)—N-cyclopropyl-5-(1-(1-(2-fluoroethyl)pyrrolidin-3-yl)-1H-pyrrolo[2,3-b]pyridin-3-yl)-7-(methylamino)pyrazolo[1,5-a]pyrimidine-3-carboxamide] the value was under 0.2 nM; for `CNc1cc(-c2cn(CCCO)c3ncc(F)cc23)nc2c(C(=O)N[C@@H]3CC[C@H]3OC)cnn12` [I-1229], under 0.2 nM.
`CNc1cc(-c2cn(C3CCOCC3)c3ncccc23)nc2c(C(=O)N[C@@H]3COC[C@@H]3O)cnn12` [I-1307] had a Kd of under 0.2 nM.
For `CNc1cc(Nc2cccn([C@H]3C[C@@H]3OC)c2=O)nc2c(C(=O)N[C@@H]3C[C@@H]3F)cnn12` [I-1272] the value was 1 to 10 nM; for `CNc1cc(Nc2cccn([C@@H]3CCCN(CCC#N)C3)c2=O)nc2c(C(=O)NC3CC3)cnn12` [I-1346, (R)-5-((1-(1-(2-cyanoethyl)piperidin-3-yl)-2-oxo-1,2-dihydropyridin-3-yl)amino)-N-cyclopropyl-7-(methylamino)pyrazolo[1,5-a]pyrimidine-3-carboxamide], under 0.2 nM.
For `CNc1cc(-c2cn(C3CCOCC3)c3ncccc23)nc2c(C(=O)N[C@@H]3CCC[C@@H](O)C3)cnn12` (stereo in doubt) [I-1359, N-(3-hydroxycyclohexyl)-7-(methylamino)-5-(1-(tetrahydro-2H-pyran-4-yl)-1H-pyrrolo[2,3-b]pyridin-3-yl)pyrazolo[1,5-a]pyrimidine-3-carboxamide] the value was under 0.2 nM; for `CNc1cc(Nc2cccn([C@@H]3C[C@H]3F)c2=O)nc2c(C(=O)N[C@H]3CC[C@@H]3O)cnn12` [I-1401], under 0.2 nM; for `CNc1cc(Nc2cccn(C3CCOCC3)c2=O)nc2c(C(=O)N[C@H]3CCC[C@](C)(OC)C3)cnn12` [I-1200], 0.2 to 1 nM.
Molecule `CNc1cc(-c2cn([C@@H]3CCCOC3)c3ncccc23)nc2c(C(=O)NC3CCC3O)cnn12` (mixture of isomers) [I-1257, N-(2-hydroxycyclobutyl)-7-(methylamino)-5-(1-((R)-tetrahydro-2H-pyran-3-yl)-1H-pyrrolo[2,3-b]pyridin-3-yl)pyrazolo[1,5-a]pyrimidine-3-carboxamide] had a dissociation constant Kd of under 0.2 nM.
For `CNc1cc(Nc2cccn(C3CCOCC3)c2=O)nc2c(C(=O)N[C@@H]3CC[C@H](O)C3)cnn12` [I-1264] the value was 1 to 10 nM; for `CNc1cc(Nc2cccn(C3CCOCC3)c2=O)nc2c(C(=O)N[C@H]3CC[C@@H](O)C3)cnn12` [I-1263], under 0.2 nM.
In the case of `CNc1cc(Nc2cccn(C(C)C)c2=O)nc2c(C(=O)N[C@@H]3COC[C@@H]3O)cnn12` [I-1301] it was 0.2 to 1 nM; in that of `CNc1cc(Nc2cccn([C@H]3CCC[C@H]3O)c2=O)nc2c(C(=O)N[C@@H]3CC[C@H]3OC)cnn12` [I-1372], 0.2 to 1 nM.

These data come from patent publication US10508120B2, “TYK2 inhibitors and uses thereof” (Nimbus Lakshmi, Inc., priority 2017, dated 2019).
